Experimental data reported in patent publication EP0385679B1, “Heterocyclic cyclic ethers with inhibitory activity on 5-lipoxygenase” (ZENECA LIMITED, priority 1989, dated 1990).

How the values were obtained:
5-LO = target: T1, 5-LO (Homo sapiens, UniProt P09917); experiment: Test b): heparinised human blood challenged with A23187, radioimmunoassay of LTB₄; type: cell-based; conditions: heparinised human blood, calcium ionophore A23187 challenge; read-out: IC₅₀ against LTB₄ in test b)
T1 construct: incubating a test compound with heparinised human blood, prior to challenge with the calcium ionophore A23187; endogenous in cells; host or cells: human whole blood (heparinised), blood cells
T1 sequence (P09917 1-674): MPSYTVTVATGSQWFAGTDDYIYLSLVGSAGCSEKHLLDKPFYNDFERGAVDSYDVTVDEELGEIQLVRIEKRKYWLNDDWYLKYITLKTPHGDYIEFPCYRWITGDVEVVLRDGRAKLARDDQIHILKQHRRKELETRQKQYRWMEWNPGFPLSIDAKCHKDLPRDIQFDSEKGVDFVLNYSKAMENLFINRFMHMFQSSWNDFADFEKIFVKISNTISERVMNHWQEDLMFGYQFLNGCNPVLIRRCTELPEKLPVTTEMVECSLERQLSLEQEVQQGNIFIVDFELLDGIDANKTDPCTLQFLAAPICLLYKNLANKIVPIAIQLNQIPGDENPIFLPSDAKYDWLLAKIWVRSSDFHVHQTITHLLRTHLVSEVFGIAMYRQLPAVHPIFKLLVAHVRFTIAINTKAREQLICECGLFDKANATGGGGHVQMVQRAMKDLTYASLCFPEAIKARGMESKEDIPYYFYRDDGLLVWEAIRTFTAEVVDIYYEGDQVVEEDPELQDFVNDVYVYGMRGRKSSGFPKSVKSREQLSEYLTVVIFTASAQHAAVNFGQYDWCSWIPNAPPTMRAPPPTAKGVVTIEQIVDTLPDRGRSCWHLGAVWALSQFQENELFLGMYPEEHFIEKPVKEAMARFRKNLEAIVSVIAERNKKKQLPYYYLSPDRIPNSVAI
Procedure: (§1) As stated previously, the heterocyclic cyclic ethers of the formula I are inhibitors of the enzyme 5-LO. […] This test provides a measure of the intrinsic inhibitory properties against soluble 5-LO in an extracellular environment. • b) An in vitro assay system involving incubating a test compound with heparinised human blood, prior to challenge with the calcium ionophore A23187 and then indirectly measuring the inhibitory effects on 5-LO by assaying the amount of LTB₄ using the specific radioimmunoassay described by Carey and Forder (F. Carey and R.A. Forder, Brit. […] The effects of a test compound on the enzyme cyclooxygenase (which is involved in the alternative metabolic pathway for arachidonic acid and gives rise to prostaglandins, thromboxanes and related metabolites) may be measured at the same time using the specific radioimmunoassay for thromboxane B₂(TxB₂) described by Carey and Forder (see above). […] It permits the selectivity of the inhibitory effect on 5-LO or cyclooxygenase to be assessed. • c) An ex vivo assay system, which is a variation of test b) above, involving administration of a test compound (usually orally as the suspension produced when a solution of the test compound in dimethylsulphoxide is added to carboxymethylcellulose), blood collection, heparinisation, challenge with A23187 and radioimmunoassay of LTB₄ and TxB₂. […]

cyclooxygenase = target: T2, cyclooxygenase (Homo sapiens, UniProt P23219); experiment: Test b): heparinised human blood challenged with A23187, radioimmunoassay of TxB₂; type: cell-based; conditions: heparinised human blood, calcium ionophore A23187 challenge; read-out: IC₅₀ against TxB₂ in test b)
T2 construct: may be measured at the same time using the specific radioimmunoassay for thromboxane B₂(TxB₂); endogenous in cells; host or cells: human whole blood (heparinised), blood cells
Procedure: as §1

T2 sequence (P23219 24-599): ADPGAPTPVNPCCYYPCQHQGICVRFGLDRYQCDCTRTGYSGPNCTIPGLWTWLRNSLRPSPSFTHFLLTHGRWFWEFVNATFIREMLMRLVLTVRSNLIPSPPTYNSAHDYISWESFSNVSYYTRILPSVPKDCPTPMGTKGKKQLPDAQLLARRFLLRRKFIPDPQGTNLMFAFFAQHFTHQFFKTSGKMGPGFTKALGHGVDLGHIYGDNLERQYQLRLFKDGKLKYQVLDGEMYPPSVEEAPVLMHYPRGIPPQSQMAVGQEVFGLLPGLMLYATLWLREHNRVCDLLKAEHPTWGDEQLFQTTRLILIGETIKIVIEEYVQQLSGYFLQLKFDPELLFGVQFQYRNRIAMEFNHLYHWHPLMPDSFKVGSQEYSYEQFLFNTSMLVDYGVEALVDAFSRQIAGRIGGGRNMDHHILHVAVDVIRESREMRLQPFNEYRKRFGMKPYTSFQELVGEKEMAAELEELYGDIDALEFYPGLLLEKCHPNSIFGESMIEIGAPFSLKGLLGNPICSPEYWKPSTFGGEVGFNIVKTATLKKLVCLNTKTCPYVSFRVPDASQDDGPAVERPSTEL

IC50 (5-LO)	IC50 (cyclooxygenase)	Structure (SMILES)
80 nM	–	CCC1(c2cc(F)cc(OCc3ccc4c(ccc(=O)n4C)c3)c2)COC(C)(C)O1 (stereo not drawn) [4-ethyl-4-[5-fluoro-3-(1,2-dihydro-1-methyl-2-oxoquinolin-6-ylmethoxy)phenyl]-2,2-dimethyl-1,3-dioxolane]
800 nM	> 40000 nM	CCC1(c2cccc(OCC#Cc3ccccn3)c2)COC(C)(C)O1 (stereo not drawn) [2,2-dimethyl-4-ethyl-4-[3-(3-(2-pyridyl)prop-2-yn-1-yloxy)phenyl]-1,3-dioxolane]
